From patent US20140045908A1, “HSP90 INHIBITORY COMPOUNDS IN TREATING JAK/STAT SIGNALING-MEDIATED CANCERS” (SYNTA PHARMACEUTICALS CORP., priority 2011, published 2014) come the findings set out here.

One data set deals with HEL92.1.7 cells. Description: Cell viability assay (AlamarBlue, 72 h). The format is cell-based, human. The method, then:
(§1) All cell lines were obtained from the ATCC (Rockville, Md., USA), with the exception of SET-2 cells which were purchased from the German Collection of Microorganisms and Cell Cultures (DSMZ, Germany). Cells were maintained and cultured according to standard techniques at 37° C. in 5% (v/v) CO2 using culture medium recommended by the supplier.
(§2) Cells were grown in 96-well plates based on optimal growth rates determined empirically for each line. Twenty-four hours after plating, cells were dosed with the indicated compound or DMSO (0.3%) for 72 h. AlamarBlue (Invitrogen, Carlsbad, Calif., USA) was added (10% v/v) to the cells, and the plates were incubated for 3 h and subjected to fluorescence detection (Ex=545 nm, Em=600 nm) in a SpectraMax Plus 384 microplate reader (Molecular Devices, Sunnyvale, Calif., USA). Data are normalized to percent of control, with IC50 values based on a four-parameter logistic dose response curve (model 205) using XLfit version 5.1 from IDBS (Guildford, U.K.).
A general note: The colour change of resazurin is a common sign of viable cells or microbes.

In a further data set the test system is MV4-11 cells. Description: Cell viability assay (AlamarBlue, 72 h). The format is cell-based, human. How it is done:
as §1, §2

The subject of data set [1] is SET-2, HEL92.1.7, MV4-11, NCI-H1975 and DU145 cells. Description: Cell viability assay (AlamarBlue, 72 h), group of JAK/STAT-dependent tumor cell lines. The class given is cell-based, human. How it is done: SET-2, HEL92.1.7, MV4-11, NCI-H1975 and DU145 cells were treated with ganetespib or 17-AAG over a broad dose range (0.0001 to 1 μM) for 72 h and cell viability assessed by Alamar blue staining.
as §1, §2

The subject of data set [2] is JAK/STAT signaling in SET-2 cells. Briefly: Western blot of JAK/STAT signaling in SET-2 cells. The class given is cell-based, human. To be noted: 24 h. How it is done: SET-2 cells were dosed with the indicated concentrations of ganetespib or 17-AAG for 24 h and analyzed to determine JAK/STAT protein and target levels using the antibodies indicated.
(§3) Cells were disrupted in lysis buffer (CST) and solubilized in 2% SDS. Xenograft tumors (average volume of 100-200 mm3) were excised, cut in half, and flash frozen in liquid nitrogen. Each tumor fragment was lysed in 0.5 mL of lysis buffer using a FastPrep-24 homogenizer and Lysing Matrix A (MP Biomedicals, Solon, Ohio, USA) and lysates clarified by centrifugation. Equal amounts of proteins were resolved by SDS-PAGE and immunoblotted with indicated antibodies. The antigen-antibody complex was visualized and quantitated using an Odyssey system (LI-COR, Lincoln, Nebr., USA).

Data set [3] deals with HEL92.1.7 cells (JAK2V617F). Description: HEL92.1.7 disseminated (orthotopic) leukemia survival model. The class given is in vivo. The method, then:
Beginning 1 day after tumor cell implantation, ganetespib was i.v. dosed at its HNSTD (25 mg/kg) on a five-times per week schedule for 3 weeks through day 19 ([…]). *P<0.0001; 2-sided log-rank test.
(§4) Eight-week-old female immunodeficient CB-17/Icr-Prkdcscid/Crl (SCID) mice (Charles River Laboratories, Wilmington, Mass.) were maintained in a pathogen-free environment, and all in vivo procedures were approved by the Synta Pharmaceuticals Corp. Institutional Animal Care and Use Committee. For the MV4-11 model, tumor cells were subcutaneously implanted in SCID mice as previously described (34). Tumor volumes (V) were calculated by caliper measurements of the width (W), length (L), and thickness (T) of each tumor using the formula: V=0.5236 (LWT).
For the HEL92.1.7 model, SCID mice were i.v. injected via the tail vein with 5×10^6 cells in phosphate-buffered saline (PBS) on day 0. Implanted animals were then randomized into groups of 10 and i.v. dosed via the tail vein at 10 mL/kg body weight with either vehicle or ganetespib formulated in 10/18 DRD. Animals were weighed daily and removed from the study at the first sign of hind limb paralysis, which occurred in 100% of vehicle-treated animals. Median overall survival was estimated using the Kaplan-Meier method and the log-rank test (2-sided) for statistical significance. Tumor cells were identified as either CD44- or CD54-positive cells within the CD45-negative population. Spinal column tumor burden was determined by quantitative image analysis with ImageJ software (Wayne Rasband, National Institute of Mental Health) of hematoxylin and eosin stained tissue sections.
(§5) For both models, studies were conducted at the highest non-severely toxic doses (NHSTDs) of 150 mg/kg ganetespib one-time per week or 25 mg/kg ganetespib 5×/week for 3 weeks based on prior tolerability studies conducted in non-tumor bearing mice.

Another data set relates to MV4-11 xenografts. Briefly: MV4-11 acute myeloid leukemia xenograft model. The format is in vivo, SCID mice. The method, then: Mice bearing established MV4-11 xenografts (100-200 mm3, n=8 mice/group) were i.v. dosed (arrowheads) with ganetespib at either 25 or 150 mg/kg once weekly for 3 weeks, or at the HNSTD of 25 mg/kg five-times per week, as indicated. % T/C values are indicated to the right of each growth curve and the error bars are the s.e.m.
as §4
Animals with 100-200 mm^3 tumors were then randomized into treatment groups of 8 and i.v. dosed via the tail vein at 10 mL/kg body weight with either vehicle or ganetespib formulated in 10/18 DRD (10% DMSO, 18% Cremophor RH 40, 3.6% dextrose, 68.4% water). Tumor growth inhibition was monitored by tumor volume measurements twice weekly. As a measurement of in vivo efficacy, the % T/C value was determined from the change in average tumor volumes of each treated group relative to the vehicle-treated or itself in the case of tumor regression. Statistical significance was determined using a Kruskal-Wallis one-way ANOVA followed by the Tukey Test multiple comparison procedure.
as §5

Data set [4] concerns phospho-STAT5 and Cdk1 in MV4-11 tumors. Description: Pharmacodynamic analysis of MV4-11 xenograft tumors (western blot). The class given is in vivo, SCID mice. How it is done:
SCID mice bearing MV4-11 tumors (n=4 mice/group) were treated with vehicle or ganetespib at either 25 mg/kg or 150 mg/kg at the indicated time points between 6 h and 144 h (6 days). Tumors were resected and the levels of p-STATS, Cdk1, Hsp70 and GAPDH were determined by western blot.
as §3
To determine whether these tumor responses correlated with target modulation in vivo, additional mice bearing MV4-11 xenografts were treated with a single dose of vehicle alone or ganetespib at 25 or 150 mg/kg. Tumors were harvested between 6 and 144 hours later and pharmacodynamic analysis was performed by examining the expression levels of phospho-STAT5, Cdk1 and Hsp70 (FIG. 17). In accord with the in vivo tumor growth data, dose-dependent effects on the duration of target inhibition within the tumors were observed. […] While the relatively quick recovery of STAT5 activation should have allowed the tumor to restart growth, the more durable suppression of the cell cycle regulators appeared to have kept the growth of the tumors arrested until the next drug dosing.
Background: Immunoblotting shows a protein as a band on a membrane.

In the case of `CC(C)c1cc(-c2nnc(O)n2-c2ccc3c(ccn3C)c2)c(O)cc1O` [ganetespib, 3-(2,4-dihydroxy-5-isopropyl-phenyl)-4-(1-methyl-indol-5-yl)-5-hydroxy-[1,2,4] triazole], the “fold more potent than 17-AAG, cell viability” value in the data set with HEL92.1.7 cells (72 h) was “greater than 100 fold”. In addition, in the data set with HEL92.1.7 cells (Homo sapiens, HEL 92.1.7, 72 h, Alamar blue, read-out: IC50, loss of cellular viability), the half-inhibitory concentration (IC50) (commonly the point on the concentration scale where inhibition reaches its midpoint) was 0.02 µM. For the same compound, the “sensitivity of cells in vitro” value in the data set with MV4-11 cells is on record as “highly sensitive”. In data set [1] (each of the lines tested), the “potency compared with 17-AAG, cell viability” value is reported as “more potent than the ansamycin Hsp90 inhibitor 17-AAG”. Moreover, the “potency in reducing cellular viability” value in data set [1] (group of human hematological and solid tumor cell lines, 72 h) is on record as “low nanomolar potency”. In addition, the “concentration able to destabilize JAK2 sufficiently to result in loss of activated (phosphorylated) STAT3 and STAT5 expression” value in data set [2] was 50 nM. Further, the “tumor cell burden in bone marrow and spinal cord (histological analysis)” value in data set [3] (25 mg/kg i.v. 5×/week) is reported as “dramatically decreased tumor cell burden”. In data set [3] (25 mg/kg i.v. 5×/week through day 19, SCID mice), this compound yielded a median overall survival of 76.5 days. The “body weight (tolerability)” value in data set [3] (25 mg/kg i.v. 5×/week, after 3 weeks of dosing) is listed as “no significant loss of body weight”. Also, the tumor regression with MV4-11 xenografts (25 mg/kg i.v. 5×/week for 3 weeks) turned out to be 84%. Besides, in the data set with MV4-11 xenografts (25 or 150 mg/kg i.v. once weekly for 3 weeks), the tumor growth inhibition entry was “significant and dose dependent tumor growth inhibition”. The “time tumor growth stayed suppressed once treatment was discontinued” value in the data set with MV4-11 xenografts (both dosing regimens) is listed as “up to a week or more”. Moreover, in data set [4] (single 25 mg/kg dose), the “time by which STAT5 activity recovered in tumors” value is at most 24 h, the “time of loss of Cdk1 in tumors” value turned out to be 24 h, the “time through which Cdk1 expression remained suppressed in tumors” value is reported as “at least 48 hours” and the “time to potent inhibition of STAT5 activity in tumors” value is at most 6 h. Moreover, the “duration of repressed STAT5 activation and suppressed Cdk1 expression in tumors” value in data set [4] (single 150 mg/kg dose) is reported as “more than three days”.
